# Laboratory results from patent US20260199493A1 (priority 2021, published 2026).
# Columns and labels:
# [1] = test system: human dystrophin (DMD) exon 44; assay: Exon 44 skipping in DMD patient-derived muscle cells; format: cell-based; settings: dose-dependent, maximum observed
# Procedure: After 24 hours, the compound-containing growth medium was replaced with DMEM/2% horse serum and incubated for 5 days to promote myoblast fusion and differentiation into myotubes. Cells were washed and harvested for RNA extraction to assess exon 44 skipping, or in RIPA buffer containing protease inhibitors for protein extraction and Simple Western analysis of dystrophin protein restoration. Dystrophin levels were normalized to HSP90 and expressed relative to untreated healthy samples. Data are expressed as mean±SD, n=3-4. Untreated DMDΔ45 patient derived cells express ~10% spontaneous DMD exon 44 skipping and ~4% dystrophin protein at baseline.
# [2] = test system: exon 44 of dystrophin mRNA; assay: Exon 44 skipping by RT-PCR in NHP; format: in vivo, cynomolgus monkeys
# Procedure: Each testing article was formulated in saline at 4 mg/mL. Bloods and urine were taken at times indicated in Table 18 for further PK analysis. Biopsy at 2 days post injection was performed on biceps. Animals were sacrificed at day 7 post injection and skeletal muscles (quadriceps, diaphragm, biceps, deltoid, tibialis anterior (TiA), smooth muscles (esophagus, aorta, colon) and cardiac muscles (ventricle, atrium) were taken, pulverized, and stored at −80° C. for evaluation of exon skipping and biodistribution in tissues.
# (§1) Exon Skipping Analysis by RT-PCR: hDMD mice and NHP express full-length human dystrophin mRNA. The delivery of AC can alter the splicing and result in a shortened dystrophin mRNA after exon 44 skipping. The tissues were homogenized using 1 mL of RLT lysis buffer (Qiagen, Cat #79216). The detection of splicing correction process was measured by RT-PCR where extracted RNAs from tissues were first reverse-transcribed into cDNA and further analyzed by one step RT-PCR using the following primer set: forward primer 5′-[…]-3′ (SEQ ID NO: 262) and reverse primer 5′-[…]-3′ (SEQ ID NO: 263). […] Quantification of the relative intensity of the bands corresponding to skipped and unskipped transcripts were performed to assess AC-induced exon-44-skipping efficacy. The degree (percentage) of splicing correction detected by RT-PCR was calculated using the following equation: % correction=(intensity of 493 bp fragment band)/(intensity of 493 bp fragment band+intensity of 641 bp fragment band).
# Approximately 20 hours post dose the animal was (bright, alert, and responsive such that the animal was phenotypically “normal”) (BAR) and had zero biscuits left in the cage and was observed eating produce.
# [3] = test system: exon 44 of human dystrophin mRNA; assay: Exon 44 skipping by RT-PCR in hDMD mice; format: in vivo
# Procedure: The hemizygous mice were further genotyped at Transnetyx. All groups were dosed 5 mL/kg per animal by intravenous (iv) injection and sacrificed after 5 days post injection. All animals were euthanized by CO2 asphyxiation followed by terminal blood collection via cardiac puncture. Maximum obtainable volume of whole blood was collected into lithium heparin tubes and processed to plasma. A portion of plasma was analyzed for clinical chemistries by the Testing Facility (IDEXX) and the rest stored frozen at nominally −70° C. […] Animals were age matched and assigned into eight (8) treatment groups according to Table 15. […] All animals survived until their scheduled euthanasia time. Tissues were collected per protocol. The amount of AC and a cCPP-AC in various tissue samples was quantified by LC-MS. Exon skipping in different tissues were analyzed by RT-PCR and the quantification of exon 44 correction.
# as §1
substance,measurement,setting,value
Ac-PKKKRKV-AEEA-Lys-(cyclo[FGFGRGRQ])-PEG12-OH [EEV-PMO-DMD44-1],exon 44 skipping,[1],up to 100%
same,exon 44 skipping across different muscle groups,"[2]; 30 mg/kg, 1 hour IV infusion, 7 days",robust exon 44 skipping
same,exon skipping in all skeletal muscles,"[2]; 40 mpk IV, 7-d post injection",more than 78%
same,"exon skipping, atrium","[2]; 40 mpk IV, 7-d post injection",23.4%
same,"exon skipping, diaphragm","[2]; 40 mpk IV, 7-d post injection",98.4%
same,"exon skipping, esophagus","[2]; 40 mpk IV, 7-d post injection",57.1%
same,"exon skipping, ventricle","[2]; 40 mpk IV, 7-d post injection",31.9%
same,exon skipping,"[3]; hDMD mice, 10 mpk IV, 5 days, Diaphragm",6%
same,exon skipping,"[3]; hDMD mice, 10 mpk IV, 5 days, TiA",12%
same,exon skipping,"[3]; hDMD mice, 10 mpk IV, 5 days, Triceps",6%
same,exon skipping,"[3]; hDMD mice, 10 mpk IV, 5 days, heart",0%
same,exon skipping,"[3]; hDMD mice, 20 mpk IV, 5 days, Diaphragm",33%
same,exon skipping,"[3]; hDMD mice, 20 mpk IV, 5 days, TiA",36%
same,exon skipping,"[3]; hDMD mice, 20 mpk IV, 5 days, Triceps",22
same,exon skipping,"[3]; hDMD mice, 20 mpk IV, 5 days, heart",0%
same,exon skipping,"[3]; hDMD mice, 40 mpk IV, 5 days, Diaphragm",82%
same,exon skipping,"[3]; hDMD mice, 40 mpk IV, 5 days, TiA",99%
same,exon skipping,"[3]; hDMD mice, 40 mpk IV, 5 days, Triceps",94%
same,exon skipping,"[3]; hDMD mice, 40 mpk IV, 5 days, heart",20%
same,exon skipping,"[3]; hDMD mice, 80 mpk IV, 5 days, Diaphragm",98%
same,exon skipping,"[3]; hDMD mice, 80 mpk IV, 5 days, TiA",99%
same,exon skipping,"[3]; hDMD mice, 80 mpk IV, 5 days, Triceps",97%
same,exon skipping,"[3]; hDMD mice, 80 mpk IV, 5 days, heart",79%
same,minimum efficacious dose in the heart,"[3]; hDMD mice, IV, 5 days",40 mpk
same,exon skipping,"[3]; mouse, in vivo",up to 100%
